The supplement of paper PMC10307832

Each cell line was assayed with C1=CC2=C(C=C(C(=C2N=C1)O)N=NC3=CC4=C(C=C3)C=C(C=C4)S(=O)(=O)O)S(=O)(=O)O + O=C(c1cc(Cc2n[nH]c(=O)c3ccccc23)ccc1F)N1CCN(C(=O)C2CC2)CC1 [Olaparib] (partner 8 µM) (assay: relative viability (nuclei count vs DMSO), 5 days (fraction); higher = more cells survive). Details: first compound 8 µM.
Summary of the method: (§1)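 Relative viability equals treated-well nuclei counts divided by vehicle-well nuclei counts. Counts came from 4× images of lung cancer cell lines grown in 1536-well plates for 5 days after pin-tool dosing on the day after seeding. Dosing used one drug alone or a fixed anchor-drug dose plus five library-drug doses (not always all listed) in √10 steps, and values are medians of duplicate plates.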

Cell Line	relative viability
SW 900	0.757
NCI-H2009	0.711
NCI-H661	0.72
SK-LU-1	0.512
NCI-H1299	0.976
CAL-12T	0.74
NCI-H2228	0.751
NCI-H2023	0.416

Each cell line was assayed with O=C(NC1CCNCC1)c1n[nH]cc1NC(=O)c1c(Cl)cccc1Cl [AT-7519] + CS(=O)(=O)N1CCN(Cc2cc3nc(-c4cccc5[nH]ncc45)nc(N4CCOCC4)c3s2)CC1 [Pictilisib] (partner 1 µM) in the same assay as above. Details: first compound 0.01 µM.
Summary of the method: as §1

Cell Line	relative viability
NCI-H727	0.354
NCI-H1650	0.701
EBC-1	0.393
NCI-H1703	0.322
NCI-H1993	0.783
SW 1573	0.576
NCI-H838	0.567
LCLC-103H	0.624
NCI-H520	0.344
NCI-H2126	0.571
EMC-BAC-2	0.56
NCI-H2085	0.44
Calu-6	0.863
HCC-366	0.0989
NCI-H1666	0.405
NCI-H596	0.389
LK-2	0.785
NCI-H2087	1.02
SK-MES-1	0.457
H3255	0.537

Cell Line	relative viability
COR-L23	0.728
COR-L 105	0.372
IA-LM	0.31
LOU-NH91	0.551
ChaGo-K-1	0.589
NCI-H2170	0.305
NCI-H2405	0.461
HOP-62	0.817
HCC-44	0.588
A549	0.463
LU99A	0.365
BEN	0.532
HARA	0.361
NCI-H2009	0.914
NCI-H661	0.398
SK-LU-1	0.591
NCI-H1299	0.865
NCI-H2228	0.357
NCI-H2023	0.25
NCI-H1563	0.591

Same assay, conditions: first compound 0.03162 µM

Cell Line	relative viability
NCI-H727	0.263
NCI-H1650	0.548
EBC-1	0.31
NCI-H1703	0.234
NCI-H1993	0.76
SW 1573	0.463
NCI-H838	0.427
LCLC-103H	0.517
NCI-H520	0.296
NCI-H2126	0.516
EMC-BAC-2	0.524
NCI-H2085	0.506
Calu-6	0.919
HCC-366	0.152
NCI-H1666	0.425
NCI-H596	0.433
LK-2	0.503
NCI-H2087	0.882
SK-MES-1	0.272
H3255	0.502
COR-L23	0.598

Cell Line	relative viability
COR-L 105	0.423
IA-LM	0.328
LOU-NH91	0.536
ChaGo-K-1	1.16
NCI-H2170	0.29
NCI-H2405	0.424
HOP-62	0.742
HCC-44	0.625
A549	0.466
LU99A	0.307
BEN	0.512
HARA	0.354
NCI-H2009	0.763
NCI-H661	0.386
SK-LU-1	0.54
NCI-H1299	0.738
CAL-12T	0.514
NCI-H2228	0.371
NCI-H2023	0.24
NCI-H1563	0.612

Same assay, conditions: first compound 0.3162 µM

Cell Line	relative viability
NCI-H727	0.197
NCI-H1650	0.295
EBC-1	0.288
NCI-H1703	0.241
NCI-H1993	0.929
SW 1573	0.386
NCI-H838	0.145
LCLC-103H	0.488
NCI-H520	0.249
NCI-H2126	0.464
EMC-BAC-2	0.506
NCI-H2085	0.553
Calu-6	0.689
HCC-366	0.111
NCI-H1666	0.39
NCI-H596	0.414
LK-2	0.497
NCI-H2087	0.593
SK-MES-1	0.328
H3255	0.441
COR-L23	0.291

Cell Line	relative viability
COR-L 105	0.254
IA-LM	0.191
LOU-NH91	0.516
ChaGo-K-1	0.536
NCI-H2170	0.234
NCI-H2405	0.438
HOP-62	0.486
HCC-44	0.552
A549	0.421
LU99A	0.283
BEN	0.697
HARA	0.554
NCI-H2009	0.654
NCI-H661	0.399
SK-LU-1	0.5
NCI-H1299	0.507
CAL-12T	0.214
NCI-H2228	0.473
NCI-H2023	0.207
NCI-H1563	0.764

Same assay, conditions: first compound 1 µM

Cell Line	relative viability
NCI-H727	0.204
NCI-H1650	0.177
EBC-1	0.139
NCI-H1703	0.129
NCI-H1993	0.606
SW 1573	0.196
NCI-H838	0.103
LCLC-103H	0.557
NCI-H520	0.171
NCI-H2126	0.433
EMC-BAC-2	0.538
NCI-H2085	0.382
Calu-6	0.131
HCC-366	0.123
NCI-H1666	0.145
NCI-H596	0.347
LK-2	0.265
NCI-H2087	0.173
SK-MES-1	0.276
H3255	0.313
COR-L23	0.0899

Cell Line	relative viability
COR-L 105	0.246
IA-LM	0.0278
LOU-NH91	0.479
ChaGo-K-1	0.547
NCI-H2170	0.255
NCI-H2405	0.293
HOP-62	0.293
HCC-44	0.688
A549	0.0948
LU99A	0.251
BEN	0.468
HARA	0.279
NCI-H2009	0.247
NCI-H661	0.289
SK-LU-1	0.357
NCI-H1299	0.127
CAL-12T	0.193
NCI-H2228	0.149
NCI-H2023	0.172
NCI-H1563	0.511

What follows are cell lines tested with O=C(NC1CCNCC1)c1n[nH]cc1NC(=O)c1c(Cl)cccc1Cl [AT-7519] + Nc1ncn([C@H]2C[C@H](O)[C@@H](CO)O2)c(=O)n1 [Decitabine] (partner 2 µM) in the same assay as above. Details: first compound 0.01 µM.
Summary of the method: as §1

Cell Line	relative viability
NCI-H2342	0.709
NCI-H727	0.927
NCI-H1650	0.401
NCI-H1993	0.671
SW 1573	0.471
NCI-H838	0.479
LCLC-103H	0.785
NCI-H520	0.547
NCI-H2126	0.524
EMC-BAC-2	0.93
NCI-H2085	0.621
HCC-366	0.324
NCI-H1666	0.819
NCI-H596	0.939
LK-2	0.23
NCI-H2087	0.24
NCI-H1648	0.427
SK-MES-1	0.349
H3255	0.721

Cell Line	relative viability
COR-L23	0.455
COR-L 105	0.687
LOU-NH91	0.761
ChaGo-K-1	0.534
NCI-H2170	0.495
NCI-H2405	0.741
HOP-62	0.224
HCC-44	0.928
A549	0.233
NCI-H522	0.648
LU99A	0.953
BEN	0.754
HARA	0.526
SW 900	0.437
NCI-H2009	0.395
NCI-H661	0.568
SK-LU-1	0.602
NCI-H2023	0.201

Same assay, conditions: first compound 0.03162 µM

Cell Line	relative viability
NCI-H2342	0.61
NCI-H727	0.746
NCI-H1650	0.388
NCI-H1993	0.597
SW 1573	0.424
NCI-H838	0.45
LCLC-103H	0.669
NCI-H520	0.492
NCI-H2126	0.568
EMC-BAC-2	0.924
NCI-H2085	0.561
HCC-366	0.31
NCI-H1666	0.725
NCI-H596	0.967
LK-2	0.276
NCI-H2087	0.257
SK-MES-1	0.348
H3255	0.58

Cell Line	relative viability
COR-L23	0.465
COR-L 105	0.682
LOU-NH91	0.791
ChaGo-K-1	0.526
NCI-H2170	0.454
NCI-H2405	0.744
HOP-62	0.203
HCC-44	0.95
A549	0.22
NCI-H522	0.588
LU99A	0.843
BEN	0.663
HARA	0.531
SW 900	0.435
NCI-H2009	0.406
NCI-H661	0.538
SK-LU-1	0.653
NCI-H2023	0.234

Same assay, conditions: first compound 0.3162 µM

Cell Line	relative viability
NCI-H2342	0.701
NCI-H727	0.874
NCI-H1650	0.431
NCI-H1993	0.543
SW 1573	0.34
NCI-H838	0.383
LCLC-103H	0.707
NCI-H520	0.507
NCI-H2126	0.552
EMC-BAC-2	0.935
NCI-H2085	0.532
HCC-366	0.336
NCI-H1666	0.774
NCI-H596	0.789
LK-2	0.298
NCI-H2087	0.262
NCI-H1648	0.438
SK-MES-1	0.361
H3255	0.573

Cell Line	relative viability
COR-L23	0.388
COR-L 105	0.608
LOU-NH91	0.795
ChaGo-K-1	0.519
NCI-H2170	0.461
NCI-H2405	0.711
HOP-62	0.217
HCC-44	0.978
A549	0.28
NCI-H522	0.662
LU99A	0.791
BEN	0.771
HARA	0.819
SW 900	0.422
NCI-H2009	0.446
NCI-H661	0.534
SK-LU-1	0.569
NCI-H2023	0.209

Same assay, conditions: first compound 1 µM

Cell Line	relative viability
NCI-H2342	0.631
NCI-H727	0.509
NCI-H1650	0.204
NCI-H1993	0.391
SW 1573	0.137
NCI-H838	0.152
LCLC-103H	0.653
NCI-H520	0.395
NCI-H2126	0.495
EMC-BAC-2	0.692
NCI-H2085	0.508
HCC-366	0.215
NCI-H1666	0.673
NCI-H596	1.16
LK-2	0.266
NCI-H2087	0.0751
NCI-H1648	0.445
SK-MES-1	0.35
H3255	0.57

Cell Line	relative viability
COR-L23	0.197
COR-L 105	0.351
LOU-NH91	0.739
ChaGo-K-1	0.461
NCI-H2170	0.522
NCI-H2405	0.486
HOP-62	0.23
HCC-44	1.04
A549	0.251
NCI-H522	0.644
LU99A	0.484
BEN	0.744
HARA	0.441
SW 900	0.32
NCI-H2009	0.309
NCI-H661	0.254
SK-LU-1	0.501
NCI-H2023	0.125
